Measured values taken from patent publication US8415469B2, “Compounds and methods for kinase modulation, and indications therefor” (Plexxikon Inc., priority 2005, dated 2013).
pIC50: −log10 of the molar value.

Columns and labels:
Type in all cases: biochemical
Kdr = molecular target: T1, Kdr (Homo sapiens, UniProt P35968); test: Z'-Lyte FRET kinase assay (Invitrogen), Kdr; details: read-out: IC50, activity toward kinase Kdr
T1 construct: purchased Invitrogen (assay run by Invitrogen)

Kit = molecular target: T2, Kit (Homo sapiens, UniProt P10721); test: AlphaScreen kinase assay, Kit; details: read-out: IC50, activity toward kinase Kit
T2 construct: P1332.N6 BI PTP KIT M552-K948-X COD; His6 (N); made in house; host or cells: E. coli (PTP1B co-expressed)
T2 sequence (P10721 with tags, fused parts or gaps): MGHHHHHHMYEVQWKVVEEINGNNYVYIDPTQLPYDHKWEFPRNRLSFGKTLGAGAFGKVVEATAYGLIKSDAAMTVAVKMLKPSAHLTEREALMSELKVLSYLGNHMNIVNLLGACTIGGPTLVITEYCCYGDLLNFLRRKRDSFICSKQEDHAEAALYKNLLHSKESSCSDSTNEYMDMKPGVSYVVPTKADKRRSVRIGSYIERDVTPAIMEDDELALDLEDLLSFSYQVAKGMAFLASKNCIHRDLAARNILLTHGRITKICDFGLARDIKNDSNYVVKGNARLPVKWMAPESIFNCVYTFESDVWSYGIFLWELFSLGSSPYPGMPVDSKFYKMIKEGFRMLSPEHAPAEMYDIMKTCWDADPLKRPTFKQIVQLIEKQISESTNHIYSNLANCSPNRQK

Stk6 = molecular target: T3, Stk6 (Homo sapiens, UniProt O14965); test: Z'-Lyte FRET kinase assay (Invitrogen), Stk6; details: read-out: IC50, activity toward kinase Stk6
T3 construct: purchased Invitrogen (Carlsbad, Calif.), screening service
T3 sequence (O14965 1-403): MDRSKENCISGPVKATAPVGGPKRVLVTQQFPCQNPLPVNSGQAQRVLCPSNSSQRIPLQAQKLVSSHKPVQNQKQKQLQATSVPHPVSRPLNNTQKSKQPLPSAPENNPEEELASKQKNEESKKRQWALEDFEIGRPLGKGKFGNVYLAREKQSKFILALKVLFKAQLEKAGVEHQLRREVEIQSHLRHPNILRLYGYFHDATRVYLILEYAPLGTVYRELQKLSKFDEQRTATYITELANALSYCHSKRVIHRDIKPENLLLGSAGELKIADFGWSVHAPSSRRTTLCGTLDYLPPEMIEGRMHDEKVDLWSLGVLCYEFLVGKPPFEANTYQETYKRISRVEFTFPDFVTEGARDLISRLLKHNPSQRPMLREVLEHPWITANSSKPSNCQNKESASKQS

IGF1R = IGF1R (Homo sapiens, UniProt P08069); test: AlphaScreen kinase assay, IGF1R; details: read-out: IC50, activity toward kinase IGF1R
Chain of IGF1R (P08069 31-1367): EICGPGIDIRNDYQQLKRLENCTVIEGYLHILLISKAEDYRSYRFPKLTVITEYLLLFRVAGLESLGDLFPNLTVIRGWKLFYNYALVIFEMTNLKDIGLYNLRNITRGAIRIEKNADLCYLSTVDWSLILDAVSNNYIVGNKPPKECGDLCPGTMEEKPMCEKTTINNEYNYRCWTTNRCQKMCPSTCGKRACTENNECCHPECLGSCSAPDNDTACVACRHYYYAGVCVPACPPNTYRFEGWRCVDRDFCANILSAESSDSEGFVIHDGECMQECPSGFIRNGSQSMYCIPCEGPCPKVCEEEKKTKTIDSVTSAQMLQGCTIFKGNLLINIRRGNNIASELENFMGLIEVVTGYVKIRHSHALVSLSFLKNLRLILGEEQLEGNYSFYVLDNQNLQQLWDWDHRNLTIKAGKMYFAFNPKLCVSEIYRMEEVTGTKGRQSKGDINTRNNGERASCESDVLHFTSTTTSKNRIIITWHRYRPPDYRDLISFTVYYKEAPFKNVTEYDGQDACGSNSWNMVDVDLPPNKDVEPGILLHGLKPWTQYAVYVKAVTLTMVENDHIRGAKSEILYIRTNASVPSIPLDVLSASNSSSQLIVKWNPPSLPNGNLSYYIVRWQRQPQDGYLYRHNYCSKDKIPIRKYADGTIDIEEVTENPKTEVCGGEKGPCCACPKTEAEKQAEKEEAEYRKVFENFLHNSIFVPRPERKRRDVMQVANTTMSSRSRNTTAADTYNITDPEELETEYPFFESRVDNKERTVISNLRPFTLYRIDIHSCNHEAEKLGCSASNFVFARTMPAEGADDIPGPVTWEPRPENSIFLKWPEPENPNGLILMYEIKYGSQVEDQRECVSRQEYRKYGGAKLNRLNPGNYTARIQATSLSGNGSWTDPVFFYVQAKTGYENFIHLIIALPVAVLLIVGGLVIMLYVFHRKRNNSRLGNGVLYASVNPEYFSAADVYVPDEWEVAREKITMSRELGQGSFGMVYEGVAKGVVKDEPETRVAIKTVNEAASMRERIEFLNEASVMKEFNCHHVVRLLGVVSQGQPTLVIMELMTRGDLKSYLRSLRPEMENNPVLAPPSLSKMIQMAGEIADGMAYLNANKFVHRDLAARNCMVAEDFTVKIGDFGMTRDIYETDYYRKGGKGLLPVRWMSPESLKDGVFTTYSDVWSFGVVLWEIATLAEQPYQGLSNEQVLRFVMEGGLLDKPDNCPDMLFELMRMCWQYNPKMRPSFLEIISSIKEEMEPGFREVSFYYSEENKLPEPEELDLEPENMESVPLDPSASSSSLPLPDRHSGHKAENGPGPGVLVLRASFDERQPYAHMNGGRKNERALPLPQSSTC
Protocol: (§4) AlphaScreen assays were done using compounds dissolved in DMSO to a concentration of 20 mM. The compounds were diluted accordingly to the desired final concentrations in each sample well, using 1:3 serial dilution for a total of 8 concentration points. Plates were prepared such that each kinase reaction is 20 μl in 1× kinase buffer, 5% DMSO and 10 μM ATP. After incubation of the kinase reaction for 1 hour at room temperature, 5 μl of donor beads in stop buffer (50 mM EDTA in 1× kinase buffer) was added, the sample was mixed and incubated for 20 minutes at room temperature before adding 5 μl of acceptor beads in stop buffer. The samples were incubated for 60 minutes at room temperature and the signal per well was read on AlphaQuest reader.

Ret = molecular target: T4, Ret (Homo sapiens, UniProt P07949); test: AlphaScreen kinase assay, Ret; details: read-out: IC50, activity toward kinase Ret
T4 construct: P1378.pET-SF BI-PTP RET H661-R1012 HIS; made in house
T4 sequence (P07949 with tags, fused parts or gaps): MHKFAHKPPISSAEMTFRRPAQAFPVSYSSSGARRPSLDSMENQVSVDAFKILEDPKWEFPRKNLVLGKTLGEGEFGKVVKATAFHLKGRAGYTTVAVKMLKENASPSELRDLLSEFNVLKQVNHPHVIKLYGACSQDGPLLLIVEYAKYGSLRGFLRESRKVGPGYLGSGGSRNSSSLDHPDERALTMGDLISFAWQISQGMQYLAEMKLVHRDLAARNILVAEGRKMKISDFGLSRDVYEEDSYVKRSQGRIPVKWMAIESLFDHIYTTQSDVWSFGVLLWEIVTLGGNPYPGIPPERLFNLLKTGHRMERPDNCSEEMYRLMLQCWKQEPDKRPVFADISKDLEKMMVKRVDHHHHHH

Zap70 = molecular target: T5, Zap70 (Homo sapiens, UniProt P43403); test: AlphaScreen kinase assay, Zap70; details: read-out: IC50, activity toward kinase Zap70
T5 construct: P1868.pFastBac1 ZAP70 D327-G606 HIS, WT; His7 (HHHHHHH) (C); made in house
T5 sequence (P43403 with tags, fused parts or gaps): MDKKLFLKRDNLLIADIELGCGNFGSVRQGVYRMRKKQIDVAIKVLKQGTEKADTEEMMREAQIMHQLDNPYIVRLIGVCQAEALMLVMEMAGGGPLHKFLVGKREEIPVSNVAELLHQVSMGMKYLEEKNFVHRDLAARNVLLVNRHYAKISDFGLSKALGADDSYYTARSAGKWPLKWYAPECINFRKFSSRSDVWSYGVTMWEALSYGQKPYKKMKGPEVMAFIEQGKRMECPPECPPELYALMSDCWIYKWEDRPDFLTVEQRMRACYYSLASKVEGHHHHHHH
Method in brief: (§1)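 Emission from acceptor beads reports phosphorylated biotin-peptide bridging antibody-coated acceptor and streptavidin donor beads; loss of signal reflects kinase inhibition. Eight-point, threefold dilution series prepared from 20 mM DMSO stocks.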

Gsk3β = Gsk3β (Homo sapiens, UniProt P49841); test: AlphaScreen kinase assay, Gsk3β; details: read-out: IC50, activity toward kinase Gsk3β
Chain of Gsk3β (P49841 whole entry): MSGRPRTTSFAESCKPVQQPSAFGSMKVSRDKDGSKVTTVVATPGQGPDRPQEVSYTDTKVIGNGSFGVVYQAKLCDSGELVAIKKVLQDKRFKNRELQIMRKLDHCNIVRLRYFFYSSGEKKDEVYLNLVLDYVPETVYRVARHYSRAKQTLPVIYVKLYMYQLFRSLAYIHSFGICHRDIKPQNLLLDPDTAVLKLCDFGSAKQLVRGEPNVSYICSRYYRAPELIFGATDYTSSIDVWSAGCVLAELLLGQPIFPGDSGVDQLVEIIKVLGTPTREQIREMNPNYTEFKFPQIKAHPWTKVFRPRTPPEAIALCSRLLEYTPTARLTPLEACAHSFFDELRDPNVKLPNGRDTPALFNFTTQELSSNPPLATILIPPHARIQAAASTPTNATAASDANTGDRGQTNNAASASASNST
Method in brief: as §1

Plk1 = Plk1 (Homo sapiens, UniProt P53350); test: AlphaScreen kinase assay, Plk1; details: read-out: IC50, activity toward kinase Plk1
Chain of Plk1 (P53350 whole entry): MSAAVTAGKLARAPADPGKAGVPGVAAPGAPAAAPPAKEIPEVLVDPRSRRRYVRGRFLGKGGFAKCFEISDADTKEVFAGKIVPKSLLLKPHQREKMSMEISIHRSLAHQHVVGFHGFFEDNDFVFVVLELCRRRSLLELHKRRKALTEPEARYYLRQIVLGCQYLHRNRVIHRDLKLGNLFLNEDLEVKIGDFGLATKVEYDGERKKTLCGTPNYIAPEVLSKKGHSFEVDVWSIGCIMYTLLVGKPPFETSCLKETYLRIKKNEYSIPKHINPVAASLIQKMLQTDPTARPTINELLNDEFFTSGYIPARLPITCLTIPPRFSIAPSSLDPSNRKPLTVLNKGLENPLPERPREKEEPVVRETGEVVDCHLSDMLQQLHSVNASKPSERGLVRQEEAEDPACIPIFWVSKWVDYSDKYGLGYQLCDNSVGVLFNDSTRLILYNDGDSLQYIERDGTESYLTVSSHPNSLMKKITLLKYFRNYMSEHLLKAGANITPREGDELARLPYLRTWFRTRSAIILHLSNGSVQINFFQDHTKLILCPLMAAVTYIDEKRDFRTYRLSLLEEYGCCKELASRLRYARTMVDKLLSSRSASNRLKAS
Excerpt: (§2) AlphaScreen assay was used to screen additional kinases. The assay is similarly dependent on the phosphorylation of a peptide substrate. In this assay, an antibody that recognizes phosphorylated substrate is bound to an acceptor bead. The peptide substrate is attached to biotin, which binds to a donor head that contains streptavidin. Thus phosphorylated substrate is bound by antibody and streptavidin, bringing the donor and acceptor heads into close proximity when kinase is not inhibited. The donor produces singlet oxygen which results in emission from the acceptor when they are in close proximity. Conversely, when kinase is inhibited, the donor and acceptor beads are not associated and the emission from the acceptor is reduced.
(§3) AlphaScreen assays were done using compounds dissolved in DMSO to a concentration of 20 mM. The compounds were diluted accordingly to the desired final concentrations in each sample well, using 1:3 serial dilution for a total of 8 concentration points.

B-Raf = molecular target: T6, B-Raf (Homo sapiens, UniProt P15056); test: AlphaScreen kinase assay, B-Raf; details: read-out: IC50, activity toward kinase B-Raf
T6 construct: purchased Upstate Biotechnology

B-Raf V600E = molecular target: T7, B-Raf V600E (Homo sapiens, UniProt P15056, V600E); test: AlphaScreen kinase assay, B-Raf V600E; details: read-out: IC50, activity toward kinase B-Raf V600E
T7 construct: P4254. pFastBacBD-CDC37 BRAF D437-K722-X, V600E; His6 with pFastBac HT leader (TEV site) (N); made in house; host or cells: Sf9 (baculovirus; chaperone CDC37 co-expressed)
T7 sequence (P15056 with tags, fused parts or gaps V600E): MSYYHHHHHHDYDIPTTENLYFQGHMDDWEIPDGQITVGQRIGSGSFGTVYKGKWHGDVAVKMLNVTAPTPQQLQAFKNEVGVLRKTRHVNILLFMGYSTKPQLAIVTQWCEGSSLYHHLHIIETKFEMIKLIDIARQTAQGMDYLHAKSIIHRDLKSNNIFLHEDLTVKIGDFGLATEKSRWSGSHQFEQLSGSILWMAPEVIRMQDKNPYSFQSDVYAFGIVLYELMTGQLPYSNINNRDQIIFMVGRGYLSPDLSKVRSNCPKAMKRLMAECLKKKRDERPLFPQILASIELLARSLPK
Protocol: as §4

c-Raf-1 = molecular target: T8, c-Raf-1 (Homo sapiens, UniProt P04049); test: AlphaScreen kinase assay, c-Raf-1; details: read-out: IC50, activity toward kinase c-Raf-1
T8 construct: purchased Upstate Biotechnology

Jak3 = molecular target: T9, Jak3 (Homo sapiens, UniProt P52333); test: AlphaScreen kinase assay, Jak3; details: read-out: IC50, activity toward kinase Jak3
T9 sequence (P52333 1-1124): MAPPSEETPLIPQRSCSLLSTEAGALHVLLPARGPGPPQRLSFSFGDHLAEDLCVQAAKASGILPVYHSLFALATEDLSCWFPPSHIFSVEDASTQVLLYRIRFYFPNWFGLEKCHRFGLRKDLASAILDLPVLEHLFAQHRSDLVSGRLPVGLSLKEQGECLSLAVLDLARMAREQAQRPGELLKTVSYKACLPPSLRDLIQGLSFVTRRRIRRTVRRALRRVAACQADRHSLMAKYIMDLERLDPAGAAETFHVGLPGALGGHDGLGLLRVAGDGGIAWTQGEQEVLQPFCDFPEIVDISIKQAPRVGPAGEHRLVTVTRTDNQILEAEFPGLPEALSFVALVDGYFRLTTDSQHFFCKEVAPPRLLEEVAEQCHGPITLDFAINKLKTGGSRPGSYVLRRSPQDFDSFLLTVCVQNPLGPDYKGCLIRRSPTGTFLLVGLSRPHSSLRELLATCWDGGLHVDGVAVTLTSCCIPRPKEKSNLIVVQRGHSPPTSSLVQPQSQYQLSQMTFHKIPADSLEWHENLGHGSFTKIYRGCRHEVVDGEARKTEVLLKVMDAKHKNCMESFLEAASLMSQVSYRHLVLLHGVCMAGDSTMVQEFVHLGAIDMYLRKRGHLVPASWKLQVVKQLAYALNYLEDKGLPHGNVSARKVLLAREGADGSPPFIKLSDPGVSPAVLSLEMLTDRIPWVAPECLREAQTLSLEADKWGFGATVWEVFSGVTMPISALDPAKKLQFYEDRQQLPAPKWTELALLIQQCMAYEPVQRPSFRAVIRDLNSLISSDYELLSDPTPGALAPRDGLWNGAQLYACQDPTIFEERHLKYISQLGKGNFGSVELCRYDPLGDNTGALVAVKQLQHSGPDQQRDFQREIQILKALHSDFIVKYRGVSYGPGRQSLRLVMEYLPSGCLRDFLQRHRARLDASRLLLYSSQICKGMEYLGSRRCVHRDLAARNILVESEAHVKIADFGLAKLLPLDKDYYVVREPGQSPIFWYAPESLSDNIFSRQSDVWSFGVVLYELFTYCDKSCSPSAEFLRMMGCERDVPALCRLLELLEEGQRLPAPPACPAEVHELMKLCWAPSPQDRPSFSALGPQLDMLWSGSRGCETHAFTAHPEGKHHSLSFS
Excerpt: as §2, §3

Met = molecular target: T10, Met (Homo sapiens, UniProt P08581); test: AlphaScreen kinase assay, Met; details: read-out: IC50, activity toward kinase Met
T10 construct: P1818.pETN6 BI-PTP MET G1056-G1364-X WT; His6 (N); made in house; host or cells: E. coli (PTP1B co-expressed)
Method in brief: as §1

FGFR1 = molecular target: T11, FGFR1 (Homo sapiens, UniProt P11362, C488A/C584S); test: AlphaScreen kinase assay, FGFR1; details: read-out: IC50, activity toward kinase FGFR
T11 construct: P1351.pET N6 BI-PTP FGFR A458-E765-X C488A, C584S; made in house; host or cells: E. coli (PTP1B co-expressed)

Pyk2 = molecular target: T12, Pyk2 (Homo sapiens, UniProt Q14289); test: AlphaScreen kinase assay, Pyk2; details: read-out: IC50, activity toward kinase Pyk2
T12 construct: purchased Upstate Biotechnology

Jnk3 = molecular target: T13, Jnk3 (Homo sapiens, UniProt P53779); test: AlphaScreen kinase assay, Jnk3; details: read-out: IC50, activity toward kinase Jnk3
T13 construct: purchased Upstate Biotechnology

IKK beta = molecular target: T14, IKK beta (Homo sapiens, UniProt O14920); test: AlphaScreen kinase assay, IKK beta; details: read-out: IC50, activity toward kinase IKK beta
T14 sequence (O14920 1-756): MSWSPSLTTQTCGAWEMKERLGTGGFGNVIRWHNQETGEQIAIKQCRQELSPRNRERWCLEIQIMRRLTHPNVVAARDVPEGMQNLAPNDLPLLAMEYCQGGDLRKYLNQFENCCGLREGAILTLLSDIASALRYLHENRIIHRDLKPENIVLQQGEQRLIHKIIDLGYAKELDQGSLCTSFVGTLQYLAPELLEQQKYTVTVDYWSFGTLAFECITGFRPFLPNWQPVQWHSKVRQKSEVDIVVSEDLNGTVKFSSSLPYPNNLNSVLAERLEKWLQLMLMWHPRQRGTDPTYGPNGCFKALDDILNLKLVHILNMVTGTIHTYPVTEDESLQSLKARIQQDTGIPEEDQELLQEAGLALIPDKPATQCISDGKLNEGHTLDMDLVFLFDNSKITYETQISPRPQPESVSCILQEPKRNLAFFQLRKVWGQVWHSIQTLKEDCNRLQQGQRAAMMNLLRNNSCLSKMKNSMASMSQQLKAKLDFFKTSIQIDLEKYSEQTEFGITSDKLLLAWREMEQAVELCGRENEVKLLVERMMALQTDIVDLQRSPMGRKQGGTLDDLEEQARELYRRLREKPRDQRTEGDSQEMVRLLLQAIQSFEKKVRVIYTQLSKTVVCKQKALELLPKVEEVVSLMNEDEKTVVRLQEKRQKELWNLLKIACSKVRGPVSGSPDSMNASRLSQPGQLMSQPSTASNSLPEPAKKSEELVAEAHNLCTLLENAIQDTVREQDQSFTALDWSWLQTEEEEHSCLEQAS
Protocol: as §4

Btk = molecular target: T15, Btk (Homo sapiens, UniProt Q06187); test: Z'-Lyte FRET kinase assay (Invitrogen), Btk; details: read-out: IC50, activity toward kinase Btk
T15 construct: purchased Invitrogen (assay run by Invitrogen)
T15 sequence (Q06187 whole entry): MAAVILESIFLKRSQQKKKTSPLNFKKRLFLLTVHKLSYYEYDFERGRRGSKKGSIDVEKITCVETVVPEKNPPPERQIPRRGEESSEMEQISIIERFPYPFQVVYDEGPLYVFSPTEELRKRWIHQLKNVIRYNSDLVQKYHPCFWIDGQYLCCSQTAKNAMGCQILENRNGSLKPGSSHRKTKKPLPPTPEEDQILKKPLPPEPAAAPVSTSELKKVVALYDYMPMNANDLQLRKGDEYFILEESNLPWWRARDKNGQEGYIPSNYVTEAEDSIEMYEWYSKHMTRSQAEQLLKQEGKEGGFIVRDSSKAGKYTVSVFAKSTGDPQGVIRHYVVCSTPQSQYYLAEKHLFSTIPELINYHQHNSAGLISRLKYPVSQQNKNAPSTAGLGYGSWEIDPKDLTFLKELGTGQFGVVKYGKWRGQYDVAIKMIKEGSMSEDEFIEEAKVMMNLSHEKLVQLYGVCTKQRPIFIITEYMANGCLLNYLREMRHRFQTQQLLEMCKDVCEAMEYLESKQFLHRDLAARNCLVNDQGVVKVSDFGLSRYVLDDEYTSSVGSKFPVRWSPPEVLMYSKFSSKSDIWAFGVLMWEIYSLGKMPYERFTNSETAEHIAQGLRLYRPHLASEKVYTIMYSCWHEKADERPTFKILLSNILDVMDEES

Measured: pIC50

T1 sequence (P35968 20-1356): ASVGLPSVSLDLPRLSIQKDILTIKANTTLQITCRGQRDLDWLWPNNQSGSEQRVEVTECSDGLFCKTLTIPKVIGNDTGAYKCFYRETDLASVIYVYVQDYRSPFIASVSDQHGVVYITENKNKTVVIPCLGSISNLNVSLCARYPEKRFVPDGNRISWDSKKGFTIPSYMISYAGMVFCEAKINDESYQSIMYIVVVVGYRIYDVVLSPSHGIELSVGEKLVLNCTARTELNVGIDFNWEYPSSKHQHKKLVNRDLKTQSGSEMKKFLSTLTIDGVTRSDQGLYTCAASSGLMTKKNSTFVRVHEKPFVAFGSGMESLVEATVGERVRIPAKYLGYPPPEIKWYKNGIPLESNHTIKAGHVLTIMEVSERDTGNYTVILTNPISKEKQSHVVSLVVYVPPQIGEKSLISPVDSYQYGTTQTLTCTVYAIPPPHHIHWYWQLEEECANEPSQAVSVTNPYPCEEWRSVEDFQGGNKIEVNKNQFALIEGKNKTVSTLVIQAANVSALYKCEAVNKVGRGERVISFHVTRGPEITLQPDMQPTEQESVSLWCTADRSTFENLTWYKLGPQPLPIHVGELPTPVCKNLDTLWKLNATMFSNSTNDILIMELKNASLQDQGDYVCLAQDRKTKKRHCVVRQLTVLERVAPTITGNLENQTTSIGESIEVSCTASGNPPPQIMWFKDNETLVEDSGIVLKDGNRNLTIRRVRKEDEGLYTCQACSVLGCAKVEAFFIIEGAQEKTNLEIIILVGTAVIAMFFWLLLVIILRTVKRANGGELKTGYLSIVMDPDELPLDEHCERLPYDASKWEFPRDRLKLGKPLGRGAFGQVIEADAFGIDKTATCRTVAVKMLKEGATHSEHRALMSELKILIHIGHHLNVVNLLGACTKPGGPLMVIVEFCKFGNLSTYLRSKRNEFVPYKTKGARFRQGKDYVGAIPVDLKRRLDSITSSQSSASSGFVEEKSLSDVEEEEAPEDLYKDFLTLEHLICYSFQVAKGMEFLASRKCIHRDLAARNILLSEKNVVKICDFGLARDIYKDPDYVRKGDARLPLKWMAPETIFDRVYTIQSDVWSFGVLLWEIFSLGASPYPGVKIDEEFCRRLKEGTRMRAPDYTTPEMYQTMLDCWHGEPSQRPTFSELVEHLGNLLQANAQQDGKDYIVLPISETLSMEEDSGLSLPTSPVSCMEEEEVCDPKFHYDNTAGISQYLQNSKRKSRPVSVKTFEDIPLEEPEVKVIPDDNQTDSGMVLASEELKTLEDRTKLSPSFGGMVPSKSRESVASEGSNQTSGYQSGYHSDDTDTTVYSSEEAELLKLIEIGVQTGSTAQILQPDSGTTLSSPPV

Nc1cccc(-c2cnc3[nH]ccc3c2)c1 [Compound P-0136]
≥ 5.00: Kdr | Kit | Stk6 | IGF1R

Clc1ccc(Cc2c[nH]c3nccc(-c4ccsc4)c23)cn1 [Compound P-0123]
≥ 5.00: Kit | Ret | Stk6 | Zap70 | Gsk3β | Plk1

O=C(c1cc(O)ccc1F)c1c[nH]c2nccc(-c3ccccc3)c12 [Compound P-0863]
≥ 5.00: B-Raf | B-Raf V600E | c-Raf-1 | Ret | Jak3 | Plk1

OCc1cccc(-c2ccnc3[nH]cc(Sc4ccccc4)c23)c1 [Compound P-0146]
≥ 5.00: B-Raf V600E | Met | Stk6 | Jak3 | Plk1

OCc1cccc(-c2cnc3[nH]ccc3c2)c1 [Compound P-0157]
≥ 5.00: Kdr | Kit | Stk6 | IGF1R

CC(C)S(=O)(=O)Nc1ccc(F)c(C(O)c2c[nH]c3ncc(Br)cc23)c1F (stereo not shown) [Compound P-0178]
≥ 5.00: B-Raf | B-Raf V600E | c-Raf-1 | FGFR1 | Pyk2 | Jak3 | Plk1

COc1cccc(-c2cnc3[nH]ccc3c2)c1 [Compound P-0213]
≥ 5.00: Jnk3 | Kdr | Kit | Stk6 | IGF1R

c1cc(-c2noc(C3CC3)n2)c2cc[nH]c2n1 [Compound P-0128]
≥ 5.00: Kdr | Stk6 | IKK beta | Plk1

COc1ccc(-c2cnc3[nH]ccc3c2)cc1OC [Compound P-0212]
≥ 5.00: Kdr | Stk6 | IGF1R

NC(=O)c1cccc(-c2ccnc3[nH]cc(C(=O)c4ccc(Cl)cc4)c23)c1 [Compound P-0135]
≥ 5.00: B-Raf V600E | Btk | Kdr | Ret | Gsk3β | IKK beta | Plk1

NC(=O)c1ccc(-c2ccnc3[nH]cc(C(=O)c4ccc(Cl)cc4)c23)cc1 [Compound P-0085]
≥ 5.00: B-Raf V600E | Btk | Kdr | Ret | Gsk3β | IKK beta | Plk1
